Assays:
[1] = test system: SD rats; experiment: SD rat carrageenan acute inflammation model; format: in vivo; conditions: SD rat carrageenan
Protocol: Using an electronic caliper for accuracy, the thickness of the rat's footpad was measured. Rats were then restrained, and 100 μl of 1% carrageenan was subcutaneously injected into the right hind footpad to induce inflammation, thereby establishing an acute inflammation model using carrageenan. Each compound was administered in advance according to the respective dosing time points. The swelling of the rat's foot was measured at various time points: before modeling (0 h) and after modeling (2, 4, 7 h). A comparison was made between footpad swelling before and after modeling. […] The results of the carrageenan-induced acute inflammation model experiment are depicted in FIG. 1.

[2] = biological target: T1, SSTR4 (Homo sapiens, UniProt P31391); experiment: FLIPR assay for agonists, HEK293/Gα15/SSTR4 cells; format: cell-based; conditions: read-out: SSTR4 Agonist Activity in FLIPR Assay EC50
T1 construct: host or cells: HEK293/Gα15/SSTR4
Protocol: The study was carried out at HD Biosciences (Shanghai, China) according to the following steps.
Step 1: Test compounds were diluted to a 400×stock solution in DMSO in a 384-well plate.
Step 2: 1 μL of the compound solution was transferred from Step 1 to 79 μL of assay buffer, creating a 5×working solution in the 384-well plate using the Bravo method.
Step 3: HEK293/Gα15/SSTR1-5 cells were cultured in DMEM medium (10% FBS).
Step 4: When cells reached 80% confluence, the cells were separated using 0.25% trypsin-EDTA.
Step 5: The cell density was measured and the cells diluted to 1×10^6/mL using DMEM (10% FBS).
Step 6: 30 μL of cells were dispensed into each well of a Matrigel-coated 384-well plate (Corning 3764#) using a multi-channel pipette (30,000 cells per well) and cultured for 20-24 hours at 37° C. and 5% CO2.
Step 7: 10 μL of dye was added to each well in the cell plate prepared in Step 6.
Step 8: The dye and cells were incubated in the dark at 37° C. and 5% CO2 for 1 hour.
Step 9: After 1 hour, the FLIPR program was loaded, the pipette tips placed cell plate and compound plate (from Step 2) into the machine, and the run button was pressed. The program added 10 μL to 40 μL to the cell plate. FLIPR was used to read the plate at room temperature according to the specified settings and the data was saved.

[3] = test system: KM mice; experiment: Acetic acid induced writhing test; format: in vivo; conditions: 30 mg/kg s.c.; for No. of writhing's: 0.6% acetic acid 15 min after dosing, 30-minute period; for Percentage of Inhibition / Significant compared to the model group: writhing
Protocol: Fifteen minutes after administration, a 0.6% acetic acid solution (5 mL/kg) was injected into the abdominal cavity. The mice were then placed in an observation box, and the number of writhing episodes was recorded within a 30-minute period. The assessment of pain intensity was based on the observation of the mice's writhing behavior.

[4] = In vivo PK study; conditions: po, 3 mg/kg p.o.

T1 sequence (P31391 whole entry): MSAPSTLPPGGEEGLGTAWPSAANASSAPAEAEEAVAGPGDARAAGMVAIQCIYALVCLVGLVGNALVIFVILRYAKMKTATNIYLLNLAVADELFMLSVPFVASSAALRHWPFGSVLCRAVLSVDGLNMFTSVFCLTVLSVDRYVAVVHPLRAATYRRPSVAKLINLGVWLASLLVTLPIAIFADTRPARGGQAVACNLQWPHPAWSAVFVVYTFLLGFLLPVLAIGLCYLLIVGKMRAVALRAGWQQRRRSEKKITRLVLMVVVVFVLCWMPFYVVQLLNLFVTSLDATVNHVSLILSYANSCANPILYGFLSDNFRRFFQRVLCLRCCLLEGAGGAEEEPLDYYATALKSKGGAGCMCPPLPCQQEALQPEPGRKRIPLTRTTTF

CC(=O)Oc1ccccc1C(=O)O [Aspirin]
Changes in Foot Swelling Rate (Mean ± SEM) ([1]; 0 h (before modeling)): 0% | Foot Swelling Degrees (Mean ± SEM) ([1]; 0 h (before modeling)): 4.08 ± 0.10 mm | Changes in Foot Swelling Rate (Mean ± SEM) ([1]; 2 h after modeling): 33.44 ± 4.56% | Foot Swelling Degrees (Mean ± SEM) ([1]; 2 h after modeling): 5.42 ± 0.11 mm | Changes in Foot Swelling Rate (Mean ± SEM) ([1]; 4 h after modeling): 24.42 ± 6.86% | Foot Swelling Degrees (Mean ± SEM) ([1]; 4 h after modeling): 5.05 ± 0.21 mm | Changes in Foot Swelling Rate (Mean ± SEM) ([1]; 7 h after modeling): 19.72 ± 3.24% | Foot Swelling Degrees (Mean ± SEM) ([1]; 7 h after modeling): 4.87 ± 0.07 mm

CC(C)(NC(=O)[C@@H]1[C@@H]2CNC[C@H]1C2)c1ncc2c(Br)cccn12 [Compound 3, (1R,5S,6s)-N-(2-(8-bromoimidazo[1,5-a]pyridin-3-yl)propan-2-yl)-3-azabicyclo[3.1.1]heptane-6-carboxamide]
EC50 [2]: > 1000 nM

COc1ccc(-c2cccn3c(C(C)(C)NC(=O)[C@H]4[C@@H]5CNC[C@H]4C5)ncc23)cc1 [Compound 12, (1R,5S,6r)-N-(2-(8-(4-methoxyphenyl)imidazo[1,5-a]pyridin-3-yl)propan-2-yl)-3-azabicyclo[3.1.1]heptane-6-carboxamide]
No. of writhing's [3]: 10 | Percentage of Inhibition [3]: 54.16% | Significant compared to the model group [3]: Yes

CC(C)(NC(=O)[C@@H]1[C@@H]2C[C@H]1CN(C(=N)N)C2)c1ncc2c(Cl)cccn12 [Compound 21, (1R,5S,6r)-3-carbamimidoyl-N-(2-(8-chloroimidazo[1,5-a]pyridin-3-yl)propan-2-yl)-3-azabicyclo[3.1.1]heptane-6-carboxamide]
No. of writhing's [3]: 9 | Percentage of Inhibition [3]: 71% | Significant compared to the model group [3]: Yes

CC(C)(NC(=O)[C@@H]1[C@@H]2C[C@H]1CN(C(=N)N)C2)c1nc(C2CC2)c2ccccn12 [Compound 22, (1R,5S,6r)-3-carbamimidoyl-N-(2-(1-cyclopropylimidazo[1,5-a]pyridin-3-yl)propan-2-yl)-3-azabicyclo[3.1.1]heptane-6-carboxamide]
No. of writhing's [3]: 7 ± 2 | Percentage of Inhibition [3]: 82.45 ± 5.13% | Significant compared to the model group [3]: Yes | AUC(0-t) [4]: 1.3 ng·h/mL | Cmax [4]: 5.56 ng/mL | MRT inf [4]: 11.4 min | Tmax [4]: 11.4 min

CC(C)C[C@H](CN)CC(=O)O [Pregabalin]
Changes in Foot Swelling Rate (Mean ± SEM) ([1]; 0 h (before modeling)): 0% | Foot Swelling Degrees (Mean ± SEM) ([1]; 0 h (before modeling)): 4.06 ± 0.07 mm | Changes in Foot Swelling Rate (Mean ± SEM) ([1]; 2 h after modeling): 41.54 ± 1.45% | Foot Swelling Degrees (Mean ± SEM) ([1]; 2 h after modeling): 5.74 ± 0.09 mm | Changes in Foot Swelling Rate (Mean ± SEM) ([1]; 4 h after modeling): 35.68 ± 2.85% | Foot Swelling Degrees (Mean ± SEM) ([1]; 4 h after modeling): 5.49 ± 0.09 mm | Changes in Foot Swelling Rate (Mean ± SEM) ([1]; 7 h after modeling): 37.64 ± 2.63% | Foot Swelling Degrees (Mean ± SEM) ([1]; 7 h after modeling): 5.58 ± 0.13 mm

From US20240174693A1, “SOMATOSTATIN RECEPTOR SUBTYPE 4 (SSTR4) AGONISTS AND THEIR APPLICATIONS” (Humanwell Pharmaceutical US, priority 2022, published 2024)
